From article PMC6778934, “^99mTc-Labeled LyP-1 for SPECT Imaging of Triple Negative Breast Cancer” (Contrast Media & Molecular Imaging, 2019)

Test system: 4T1 cells
Type: cell-based, murine
Method: 4T1 murine breast carcinoma cells were purchased from American Type Culture Collection (Manassas, VA, USA) and maintained in RPMI-1640 supplemented with 10% fetal bovine serum (FBS, Gibco, Grand Island, NY, USA). To produce breast cancer models, 4-week-old female BALB/c nude mice were purchased from the Shanghai Laboratory Animal Center at the Chinese Academy of Sciences (Shanghai, China) and subcutaneously injected in the left lateral thigh with 1 × 10^6 tumor cells suspended in 100 μL of PBS. All animal experiments were performed according to protocols established by the Ethics Committee of Shanghai General Hospital. To assess potential cytotoxic effects of LyP-1 or ARAL, cell proliferation assays were conducted with CCK-8 (Dojindo Technologies, Kumamoto, Japan). 4T1 cells (1 × 10^4 per well) were plated on 96-well plates in the RPMI-1640 medium with 10% FBS. After 24 h, the medium was replaced by 100 μL of fresh containing different concentrations of LyP-1 or ARAL (0.1, 1, 5, 10, 20, or 50 μM) for another 24 h. Then, 10 μL CCK-8 was added for 2 h. Absorbance was measured at 450 nm using a Varioskan Flash multimode microplate reader (Thermo Fisher Scientific, Waltham, MA, USA).

C[C@@H](O)[C@@H]1NC(=O)[C@H](CCCNC(=N)N)NC(=O)[C@H](CCCCN)NC(=O)[C@H](CC(N)=O)NC(=O)CNC(=O)[C@@H](N)CSSC[C@@H](C(=O)O)NC(=O)CNC(=O)[C@H](CCCNC(=N)N)NC1=O [LyP-1]
cell viability compared with that for 0.1–10 μM: slightly but not significantly lower
